This passage reports IC50 results from US20220064141A1, “BENZOPYRIDONE HETEROCYCLIC COMPOUND AND USE THEREOF” (BrightGene Bio-Medical Technology Co., Ltd., priority 2019, published 2022).

In the first assay the test system is NCI-H358 human non-small cell lung cancer cell with KRAS G12C mutation. Nature of the assay: Cell Titer-Glo cell viability, NCI-H358 cells (72 h). Conditions: Homo sapiens, NCI-H358, 72 h, class symbols. The assay is classed as cell-based. An excerpt: Effect Example 1: Pharmacodynamic Assay 1 (Determination of the efficacy of the compounds of the present disclosure on NCI-H358 human non-small cell lung cancer cell with KRAS G12C mutation)
The following method was used to determine the effect of the compounds of the present disclosure on tumor cell proliferation.
For the KRAS G12C subtype, NCI-H358 non-small cell lung cancer cells with KRAS G12C mutation were used to determine the efficacy of the compounds in inhibiting cancer cell viability. NCI-H358 cells were cultured in a DMEM medium containing 10% fetal bovine serum, 100 U penicillin and […] streptomycin. The cells were cultured in an incubator with 5% CO2 at 37° C. Cancer cell viability was evaluated by determining the content of ATP with Cell Titer-Glo® kit (Luminescent Cell Viability Assay kit, please refer to the manufacturer's instructions for use) and evaluating the inhibition of cell growth.
The experimental method was proceeded in accordance with the steps in the instructions for the kit, and was described briefly as follows. The test compounds were first dissolved in DMSO to prepare stock solutions, and then the stock solutions were subjected to gradient dilution with the culture media of the corresponding cells, thereby preparing test samples. The final concentrations of the compounds were in the range of 30 μM to 0.01 nM. Tumor cells in logarithmic growth phase were seeded into a 96-well cell culture plate at an appropriate density. After the cell culture plate was left overnight in an incubator with 5% CO2 at 37° C., the test compound samples were added thereto and then the cells were further cultured for 72 hours. After the incubation was complete, an appropriate volume of Cell Titer-Glo® reagent was added into each well, and the cells were incubated at 37° C. for 1 to 4 hours. Then, the […] was read on a microplate reader.
In the case of `C=CC(=O)N1CCN(c2c(C#N)c(=O)n(-c3ccccc3C(C)C)c3cc(-c4cccc5c4OCCO5)c(Cl)cc23)[C@@H](C)C1` [Compound I-26], the IC50 (usually the point on the concentration scale where inhibition reaches its midpoint) lay in the range of 100 to 1000 nM.

Compound `C=CC(=O)N1CCN(c2c(C#N)c(=O)n(-c3ccccc3C(C)C)c3cc(-c4cnn(CCO)c4)c(Cl)cc23)[C@@H](C)C1` [Compound I-58] gave an IC50 of 100 to 1000 nM.

With `C=CC(=O)N1CCN(c2c(C#N)c(=O)n(-c3ccccc3C(C)C)c3cc(-c4cc(Cl)cc(C)c4N)c(Cl)cc23)[C@@H](C)C1` [Compound I-76], the IC50 is less than 100 nM.

Compound `C=CC(=O)N1CCN(c2c(C#N)c(=O)n(-c3ccccc3C(C)C)c3cc(-c4ccc(Cl)cc4Cl)c(Cl)cc23)[C@@H](C)C1` [Compound I-38] registered an IC50 of 100 to 1000 nM.

The compound `C=CC(=O)N1CCN(c2c(C#N)c(=O)n(-c3ccccc3C(C)C)c3cc(-c4cccc(C(C)=O)c4)c(Cl)cc23)[C@@H](C)C1` [Compound I-44] showed an IC50 of 100 to 1000 nM.

Take `C=CC(=O)N1CCN(c2c(C#N)c(=O)n(-c3c(C(C)C)ncnc3C(C)C)c3cc(-c4c(OC)ccc(Cl)c4F)c(Cl)cc23)[C@@H](C)C1` [Compound I-87-1]: the IC50 is less than 100 nM.

`C=CC(=O)N1CCN(c2c(C#N)c(=O)n(-c3ccccc3C(C)C)c3cc(-c4cc(N)ccc4F)c(Cl)cc23)[C@@H](C)C1` [Compound I-13]: the IC50 fell in the range of 100 to 1000 nM.

Turning to `C=CC(=O)N1CCN(c2c(C#N)c(=O)n(-c3ccccc3C(C)C)c3cc(-c4cc(F)ccc4N)c(Cl)cc23)[C@@H](C)C1` [Compound I-69], the IC50 is less than 100 nM.

In the case of `C=CC(=O)N1CCN(c2c(C#N)c(=O)n(-c3ccccc3C(C)C)c3cc(-c4ccccc4C4CC4)c(Cl)cc23)[C@@H](C)C1` [Compound I-75], the IC50 was in the range of 100 to 1000 nM.

As to `C=CC(=O)N1CCN(c2c(C#N)c(=O)n(-c3ccccc3C(C)C)c3cc(-c4c(N)cccc4F)c(Cl)cc23)[C@@H](C)C1` [Compound I-9], the IC50 was in the range of 100 to 1000 nM.

Compound `C=CC(=O)N1CCN(c2c(C#N)c(=O)n(-c3ccccc3C(C)C)c3cc(-c4ccccc4F)c(Cl)cc23)[C@@H](C)C1` [Compound I-10] had an IC50 of more than 1000 nM.

`C=CC(=O)N1CCN(c2c(C#N)c(=O)n(-c3ccccc3C(C)C)c3cc(-c4ccc(N)nc4)c(Cl)cc23)[C@@H](C)C1` [Compound I-64] showed an IC50 of 100 to 1000 nM.

Compound `C=CC(=O)N1CCN(c2c(C#N)c(=O)n(-c3ccccc3C(C)C)c3cc(-c4cnc(F)cc4C)c(Cl)cc23)[C@@H](C)C1` [Compound I-32] showed an IC50 of 100 to 1000 nM.

In the case of `C=CC(=O)N1CCN(c2c(C#N)c(=O)n(-c3ccccc3C(C)C)c3cc(-c4cc(Cl)ccc4N)c(Cl)cc23)[C@@H](C)C1` [Compound I-43], the IC50 is less than 100 nM.

Compound `C=CC(=O)N1CCN(c2c(C#N)c(=O)n(-c3ccccc3C(C)C)c3cc(-c4cc(C)cc(Cl)c4N)c(Cl)cc23)[C@@H](C)C1` [Compound I-80] returned an IC50 of less than 100 nM.

`C=CC(=O)N1CCN(c2c(C#N)c(=O)n(-c3ccccc3C(C)C)c3cc(-c4c(C)cnn4C)c(Cl)cc23)[C@@H](C)C1` [Compound I-21]: the IC50 lay within 100 to 1000 nM.

Turning to `C=CC(=O)N1CCN(c2c(C#N)c(=O)n(-c3ccccc3C(C)C)c3cc(-c4ccc(Cl)cc4N)c(Cl)cc23)[C@@H](C)C1` [Compound I-57], the IC50 is less than 100 nM.

`C=CC(=O)N1CCN(c2c(C#N)c(=O)n(-c3ccccc3C(C)C)c3cc(-c4coc5ccccc45)c(Cl)cc23)[C@@H](C)C1` [Compound I-51] yielded an IC50 of 100 to 1000 nM.

In turn, `C=CC(=O)N1CCN(c2c(C#N)c(=O)n(-c3ccccc3C(C)C)c3cc(-c4cc(C)c(C)cc4C)c(Cl)cc23)[C@@H](C)C1` [Compound I-28] came in with an IC50 of more than 1000 nM.

With `C=CC(=O)N1CCN(c2c(C#N)c(=O)n(-c3ccccc3C(C)C)c3cc(-c4ccc(C#N)cc4C)c(Cl)cc23)[C@@H](C)C1` [Compound I-50], the IC50 lay within 100 to 1000 nM.

`C=CC(=O)N1CCN(c2c(C#N)c(=O)n(-c3ccccc3C(C)C)c3cc(-c4ccc5c(c4)CC5)c(Cl)cc23)[C@@H](C)C1` [Compound I-47]: the IC50 was in the range of 100 to 1000 nM.

For the compound `C=CC(=O)N1CCN(c2c(C#N)c(=O)n(-c3ccccc3C(C)C)c3cc(-c4cccc(N)c4F)c(Cl)cc23)[C@@H](C)C1` [Compound I-77], the IC50 lay in the range of 100 to 1000 nM.

The compound `C=CC(=O)N1CCN(c2c(C#N)c(=O)n(-c3ccccc3C(C)C)c3cc(-c4cc(C)cc(C)c4N)c(Cl)cc23)[C@@H](C)C1` [Compound I-81] registered an IC50 of 100 to 1000 nM.

Compound `C=CC(=O)N1CCN(c2c(C#N)c(=O)n(-c3ccccc3C(C)C)c3cc(-c4cc(C)ccc4O)c(Cl)cc23)[C@@H](C)C1` [Compound I-66] gave an IC50 of less than 100 nM.

In turn, `C=CC(=O)N1CCN(c2c(C#N)c(=O)n(-c3ccccc3C(C)C)c3cc(-c4cn[nH]c4)c(Cl)cc23)[C@@H](C)C1` [Compound I-54] yielded an IC50 of 100 to 1000 nM.

On to `C=CC(=O)N1CCN(c2c(C#N)c(=O)n(-c3ccccc3C(C)C)c3cc(-c4cnc(OC)cc4C)c(Cl)cc23)[C@@H](C)C1` [Compound I-30], for which the concentration for half-maximal inhibition (IC50) was more than 1000 nM.

With `C=CC(=O)N1CCN(c2c(C#N)c(=O)n(-c3ccccc3C(C)C)c3cc(-c4cccc(Cl)c4)c(Cl)cc23)[C@@H](C)C1` [Compound I-17], the 50% inhibitory concentration (IC50) is more than 1000 nM.

The compound `C=CC(=O)N1CCN(c2c(C#N)c(=O)n(-c3ccccc3C(C)C)c3cc(-c4ccccc4CO)c(Cl)cc23)[C@@H](C)C1` [Compound I-65] gave an IC50 of 100 to 1000 nM.

Turning to `C=CC(=O)N1CCN(c2c(C#N)c(=O)n(-c3ccccc3C(C)C)c3cc(-c4ccc(F)cc4O)c(Cl)cc23)[C@@H](C)C1` [Compound I-61], the IC50 was less than 100 nM.

Take `C=CC(=O)N1CCN(c2c(C#N)c(=O)n(-c3ccccc3C(C)C)c3cc(-c4cccc(F)c4)c(Cl)cc23)[C@@H](C)C1` [Compound I-14]: the IC50 was 100 to 1000 nM.

The compound `C=CC(=O)N1CCN(c2c(C#N)c(=O)n(-c3ccccc3C(C)C)c3cc(-c4ccc(N)nc4C)c(Cl)cc23)[C@@H](C)C1` [Compound I-56] displayed an IC50 of 100 to 1000 nM.

Turning to `C=CC(=O)N1CCN(c2c(C#N)c(=O)n(-c3ccccc3C(C)C)c3cc(-c4c(N)ccc(Cl)c4F)c(Cl)cc23)[C@@H](C)C1` [Compound I-35], the IC50 was less than 100 nM.

Compound `C=CC(=O)N1CCN(c2c(C#N)c(=O)n(-c3ccccc3C(C)C)c3cc(-c4cccc(O)c4F)c(Cl)cc23)[C@@H](C)C1` [Compound I-71] showed an IC50 of 100 to 1000 nM.

`C=CC(=O)N1CCN(c2c(C#N)c(=O)n(-c3ccccc3C(C)C)c3cc(-c4ccc(C)c(O)c4)c(Cl)cc23)[C@@H](C)C1` [Compound I-67] came in with an IC50 of 100 to 1000 nM.

On to `C=CC(=O)N1CCN(c2c(C#N)c(=O)n(-c3ccccc3C(C)C)c3cc(-c4ccc(F)c5ccccc45)c(Cl)cc23)[C@@H](C)C1` [Compound I-22], for which the IC50 is less than 100 nM.

Consider `C=CC(=O)N1CCN(c2c(C#N)c(=O)n(-c3ccccc3C(C)C)c3cc(-c4ccc(C#N)cc4N)c(Cl)cc23)[C@@H](C)C1` [Compound I-60], for which the IC50 fell in the range of 100 to 1000 nM.

`C=CC(=O)N1CCN(c2c(C#N)c(=O)n(-c3c(C)ccnc3C(C)C)c3cc(-c4c(OC)ccc(Cl)c4F)c(Cl)cc23)[C@@H](C)C1` [Compound I-84-1] gave an IC50 of less than 100 nM.

The same assay, now with this note: class symbols.
Regarding `C=CC(=O)N1C[C@H](C)N(c2c(C#N)c(=O)n(-c3ccccc3C(C)C)c3cc(-c4c(C)ccc5[nH]ncc45)c(Cl)cc23)C[C@H]1C` (single isomer, unassigned) [Compound I-4-1], the IC50 is more than 1000 nM.

Regarding `C=C(F)C(=O)N1CCN(c2c(C#N)c(=O)n(-c3ccccc3C(C)C)c3cc(-c4c(C)ccc5[nH]ncc45)c(Cl)cc23)[C@@H](C)C1` (single isomer, unassigned) [Compound I-6-1], the half-inhibitory concentration (IC50) was more than 1000 nM.

`C=CC(=O)N1CC2(CCN(c3c(C#N)c(=O)n(-c4ccccc4C(C)C)c4cc(-c5c(C)ccc6[nH]ncc56)c(Cl)cc34)CC2)C1` (single isomer, unassigned) [Compound I-5-2] registered an IC50 of 100 to 1000 nM.

With `C=CC(=O)N1CCN(c2c(C#N)c(=O)n(-c3ccccc3Cl)c3cc(-c4c(OC)ccc(Cl)c4F)c(Cl)cc23)[C@@H](C)C1` [Compound I-85-2], the IC50 was in the range of 100 to 1000 nM.

With `C=CC(=O)N1CCN(c2c(C#N)c(=O)n(-c3ccccc3C(C)C)c3cc(-c4c(OC)ccc(Cl)c4F)c(Cl)cc23)[C@@H](C)C1` (single isomer, unassigned) [Compound I-7-2], the IC50 lay within 100 to 1000 nM.

`C=CC(=O)N1CCN(c2c(C#N)c(=O)n(-c3ccccc3C(C)C)c3cc(-c4c(OC)ccc(Cl)c4F)c(Cl)cc23)[C@@H](C)C1` (single isomer, unassigned) [Compound I-7-1] showed an IC50 of more than 1000 nM.

In turn, `C=CC(=O)N1C[C@H](C)N(c2c(C#N)c(=O)n(-c3ccccc3C(C)C)c3cc(-c4c(C)ccc5[nH]ncc45)c(Cl)cc23)C[C@H]1C` (single isomer, unassigned) [Compound I-4-2] registered a half-maximal inhibitory concentration (IC50) of 100 to 1000 nM.

Compound `C=C(F)C(=O)N1CCN(c2c(C#N)c(=O)n(-c3ccccc3C(C)C)c3cc(-c4c(C)ccc5[nH]ncc45)c(Cl)cc23)[C@@H](C)C1` (single isomer, unassigned) [Compound I-6-2] displayed an IC50 of less than 100 nM.
